Laboratory results: paper PMC4057681, “Antenna-Specific Glutathione S-Transferase in Male Silkmoth Bombyx mori” (International Journal of Molecular Sciences, 2014)

Test system: T1, BmGSTD4
T1 construct: 245 aa precursor; signal peptide (22 aa) and the first two mature residues (Gly, Pro) removed; p28 vector (from pET28a), nickel column, E. coli Rosetta (DE3); about 26 kDa on SDS-PAGE; mature calculated 25,518 Da; by translation of printed primers: precursor begins MLTASVLG, construct begins (M)KKLVAPIK, C-terminus FINKDDE
Assay: spectrophotometric GSH conjugation at […] nm, steady-state kinetics
Assay type: biochemical, Bombyx mori
Conditions: 1 mM GSH, 0.1 M phosphate buffer pH 6.5

Compound `O=[N+]([O-])c1ccc(Cl)c([N+](=O)[O-])c1` [CDNB, 1-chloro-2,4-dinitrobenzene] has a Km of 20 µM.
